pEC50: −log10 of the molar value.
Assays:
Type in all cases: cell-based
WEE1 = biological target: T1, WEE1 (Homo sapiens, UniProt P30291+Q96SW2); test: WEE1-ePL degradation assay (293T-LentiX, InCELL Hunter luminescence, 4 hr); settings: for DC50: LentiX-HEK293T cells expressing WEE1-ePL, 4 hr incubation, read-out: 293T-LentiX WEE1-ePL Degradation 4 hr EC50; for 293T-LentiX WEE1-ePL Degradation 4 hr YMin (%): lower limit of fit, % of DMSO control signal remaining
T1 construct: C-terminal ePL-tagged (DiscoverX, Fremont, CA) full-length WEE1 expression construct; expressed in transfected cells; host or cells: LentiX-HEK293T (Invitrogen), lentivirally transduced; the cells also over-express GSPT1-GN
Outline: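 EC50 comes from a four-parameter logistic fit of ePL luminescence (InCELL Hunter), with DMSO control defining Ymax. Compounds ran as 10-point 3-fold dilutions from 1 or 10 µM for 4 h at 37 °C. Cells were HEK293T-LentiX with ePL-tagged full-length WEE1 and over-expressed Cereblon-resistant GSPT1-GN.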

MKN45 cells = test: MKN45 cell proliferation assay (Cell-Titer-Glo, 120 hr); settings: for pEC50: Homo sapiens, MKN-45, 120 h, read-out: MKN45 Cell Prolif. 120 hr EC50; for MKN45 Cell Prolif. 120 hr YMin (%): minimal percent of DMSO control observed
Outline: (§1)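 Growth inhibition was read as CellTiter-Glo luminescence after 120 h at 37 °C in RPMI/10% FBS, with 400 MKN45 or 800 MDA-MB-231 cells seeded per well. Compounds were tested in 10-point half-log series starting at 1 or 10 uM (0.1% DMSO), in triplicate for MKN45 and duplicate for MDA-MB-231. EC50 values are four-parameter fits to %DMSO control, and Ymin-obs is the minimal observed %DMSO.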

MDA-MB-231 cells = test: MDA-MB-231 cell proliferation assay (Cell-Titer-Glo, 120 hr); settings: for pEC50: Homo sapiens, MDA-MB-231, 120 h, read-out: MDA-MB 231 Cell Prolif. 120 hr EC50; for MDA-MB 231 Cell Prolif. 120 hr YMin (%): minimal percent of DMSO control observed
Outline: as §1

T1 sequence (P30291 whole entry): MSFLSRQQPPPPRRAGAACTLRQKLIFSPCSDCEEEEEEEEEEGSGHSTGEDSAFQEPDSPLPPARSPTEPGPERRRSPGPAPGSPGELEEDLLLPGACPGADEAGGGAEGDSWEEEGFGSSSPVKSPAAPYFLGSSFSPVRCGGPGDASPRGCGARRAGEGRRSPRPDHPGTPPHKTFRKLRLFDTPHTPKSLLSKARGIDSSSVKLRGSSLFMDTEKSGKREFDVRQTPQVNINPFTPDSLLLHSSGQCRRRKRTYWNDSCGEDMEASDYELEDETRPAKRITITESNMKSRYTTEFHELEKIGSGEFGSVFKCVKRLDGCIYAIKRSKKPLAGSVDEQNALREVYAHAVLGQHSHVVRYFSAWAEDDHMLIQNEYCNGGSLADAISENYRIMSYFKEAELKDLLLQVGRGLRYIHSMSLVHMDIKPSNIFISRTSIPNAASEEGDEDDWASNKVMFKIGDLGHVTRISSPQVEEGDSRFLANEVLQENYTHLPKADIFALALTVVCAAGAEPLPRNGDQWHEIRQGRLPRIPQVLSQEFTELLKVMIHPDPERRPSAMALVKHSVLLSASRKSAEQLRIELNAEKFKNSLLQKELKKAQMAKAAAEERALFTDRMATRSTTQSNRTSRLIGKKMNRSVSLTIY
T1 sequence (Q96SW2 whole entry): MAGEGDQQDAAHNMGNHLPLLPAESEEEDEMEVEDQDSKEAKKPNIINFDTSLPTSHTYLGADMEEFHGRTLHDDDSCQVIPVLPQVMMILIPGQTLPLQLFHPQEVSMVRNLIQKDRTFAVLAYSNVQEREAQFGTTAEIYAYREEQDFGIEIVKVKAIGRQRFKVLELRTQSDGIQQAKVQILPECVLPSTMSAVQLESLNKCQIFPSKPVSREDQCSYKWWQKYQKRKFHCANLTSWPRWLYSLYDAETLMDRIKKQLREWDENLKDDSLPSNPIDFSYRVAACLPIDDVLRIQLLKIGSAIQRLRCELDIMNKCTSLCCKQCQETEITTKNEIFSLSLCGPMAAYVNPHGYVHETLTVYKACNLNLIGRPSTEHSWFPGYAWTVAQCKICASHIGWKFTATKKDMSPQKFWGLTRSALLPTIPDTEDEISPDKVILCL
T1 sequence (Q16531 whole entry partner): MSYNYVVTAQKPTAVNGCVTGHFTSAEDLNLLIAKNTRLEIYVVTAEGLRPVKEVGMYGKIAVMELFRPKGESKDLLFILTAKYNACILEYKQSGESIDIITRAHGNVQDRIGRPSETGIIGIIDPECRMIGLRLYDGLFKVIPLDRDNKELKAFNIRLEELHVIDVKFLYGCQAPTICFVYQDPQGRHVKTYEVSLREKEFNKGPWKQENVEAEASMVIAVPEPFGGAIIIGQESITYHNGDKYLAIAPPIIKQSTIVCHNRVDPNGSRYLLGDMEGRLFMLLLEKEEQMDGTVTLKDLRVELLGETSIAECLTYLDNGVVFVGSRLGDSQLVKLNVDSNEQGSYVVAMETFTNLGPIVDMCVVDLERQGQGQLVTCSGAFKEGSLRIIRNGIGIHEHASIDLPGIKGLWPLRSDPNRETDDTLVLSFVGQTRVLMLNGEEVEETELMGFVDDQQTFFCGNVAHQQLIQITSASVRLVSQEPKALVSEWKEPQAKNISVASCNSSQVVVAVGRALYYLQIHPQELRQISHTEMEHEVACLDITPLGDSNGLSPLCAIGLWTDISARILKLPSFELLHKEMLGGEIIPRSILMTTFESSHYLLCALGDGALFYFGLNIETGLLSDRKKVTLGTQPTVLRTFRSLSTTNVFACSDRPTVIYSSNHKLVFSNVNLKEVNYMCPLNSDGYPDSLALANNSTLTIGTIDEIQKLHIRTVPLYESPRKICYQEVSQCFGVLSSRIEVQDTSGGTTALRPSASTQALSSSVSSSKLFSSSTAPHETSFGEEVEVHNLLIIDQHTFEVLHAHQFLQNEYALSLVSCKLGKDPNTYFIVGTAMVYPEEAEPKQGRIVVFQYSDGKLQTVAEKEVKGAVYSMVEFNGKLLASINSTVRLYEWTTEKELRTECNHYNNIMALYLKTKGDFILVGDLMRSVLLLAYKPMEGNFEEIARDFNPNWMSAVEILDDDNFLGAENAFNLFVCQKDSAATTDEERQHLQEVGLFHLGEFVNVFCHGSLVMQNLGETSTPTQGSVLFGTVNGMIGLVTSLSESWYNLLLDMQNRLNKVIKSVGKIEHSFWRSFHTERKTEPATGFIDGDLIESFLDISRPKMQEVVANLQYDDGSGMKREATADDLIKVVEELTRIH

Row | Compound | DC50 (WEE1) | 293T-LentiX WEE1-ePL Degradation 4 hr YMin (%) (WEE1) | pEC50 (MKN45 cells) | pEC50 (MDA-MB-231 cells) | MKN45 Cell Prolif. 120 hr YMin (%) (MKN45 cells) | MDA-MB 231 Cell Prolif. 120 hr YMin (%) (MDA-MB-231 cells)
1 | COC[C@@H]1CN(Cc2ccc3cc(N4CCOCC4)cnc3c2)C[C@H]1Oc1ccc2c(c1)CN([C@H]1CCC(=O)NC1=O)C2=O [Example 102, (3S)-3-(5-{[(3S,4S)-4-(methoxymethyl)-1-{[3-(morpholin-4-yl)quinolin-7-yl]methyl}pyrrolidin-3-yl]oxy}-1-oxo-2,3-dihydro-1H-isoindol-2-yl)piperidine-2,6-dione] | 3 nM | 43.7% | 6.84 | 5.99 | 49.6% | 90.7%
2 | COC[C@@H]1CN(Cc2cc(F)c3cc(N4CCOCC4)cnc3c2)C[C@H]1Oc1ccc2c(c1)CN([C@H]1CCC(=O)NC1=O)C2=O [Example 103, (3S)-3-(5-{[(3S,4S)-1-{[5-fluoro-3-(morpholin-4-yl)quinolin-7-yl]methyl}-4-(methoxymethyl)pyrrolidin-3-yl]oxy}-1-oxo-2,3-dihydro-1H-isoindol-2-yl)piperidine-2,6-dione] | 1 nM | 32.3% | 7.54 | 8.30 | 28.5% | 82.3%
3 | COC[C@@H]1CN(Cc2ccc3nc(N4CCN(C5COC5)CC4)ccc3c2)C[C@H]1Oc1ccc2c(c1)CN([C@H]1CCC(=O)NC1=O)C2=O [Example 104, (3S)-3-(5-{[(3S,4S)-4-(methoxymethyl)-1-({2-[4-(oxetan-3-yl)piperazin-1-yl]quinolin-6-yl}methyl)pyrrolidin-3-yl]oxy}-1-oxo-2,3-dihydro-1H-isoindol-2-yl)piperidine-2,6-dione] |  | 21.3% | 9.00 | 7.74 | 8.2% | 42.5%
4 | COC[C@@H]1CN(Cc2cc(F)c3nc(C(=O)N4CCOCC4)ccc3c2)C[C@H]1Oc1ccc2c(c1)CN([C@H]1CCC(=O)NC1=O)C2=O [Example 106, (3S)-3-(5-{[(3S,4S)-1-{[8-fluoro-2-(morpholine-4-carbonyl)quinolin-6-yl]methyl}-4-(methoxymethyl)pyrrolidin-3-yl]oxy}-1-oxo-2,3-dihydro-1H-isoindol-2-yl)piperidine-2,6-dione] | 4 nM | 29.8% | 7.74 | 7.74 | 11.5% | 50.8%
5 | COC[C@@H]1CN(Cc2cc(F)c3nc(CC(C)(C)O)ncc3c2)C[C@H]1Oc1ccc2c(c1)CN([C@H]1CCC(=O)NC1=O)C2=O [Example 107, (3S)-3-(5-{[(3S,4S)-1-{[8-fluoro-2-(2-hydroxy-2-methylpropyl)quinazolin-6-yl]methyl}-4-(methoxymethyl)pyrrolidin-3-yl]oxy}-1-oxo-2,3-dihydro-1H-isoindol-2-yl)piperidine-2,6-dione] | 8 nM | 19.5% | 7.89 | 6.87 | 10.4% | 51.6%
6 | COC[C@@H]1CN(Cc2cc(F)c3ncc(C4CCOCC4)cc3c2)C[C@H]1Oc1ccc2c(c1)CN([C@H]1CCC(=O)NC1=O)C2=O [Example 109, (3S)-3-(5-{[(3S,4S)-1-{[8-fluoro-3-(oxan-4-yl)quinolin-6-yl]methyl}-4-(methoxymethyl)pyrrolidin-3-yl]oxy}-1-oxo-2,3-dihydro-1H-isoindol-2-yl)piperidine-2,6-dione] |  | 27.5% | 9.00 | 7.80 | 8.7% | 37.3%
7 | COC[C@@H]1CN(Cc2cc3ccc(C(=O)N(C)C)cc3cn2)C[C@H]1Oc1ccc2c(c1)CN([C@H]1CCC(=O)NC1=O)C2=O [Example 115, 3-{[(3S,4S)-3-({2-[(3S)-2,6-dioxopiperidin-3-yl]-1-oxo-2,3-dihydro-1H-isoindol-5-yl}oxy)-4-(methoxymethyl)pyrrolidin-1-yl]methyl}-N,N-dimethyliso-quinoline-7-carboxamide] | 6 nM | 21.5% | 8.05 | 6.67 | 9.4% | 41.5%
8 | COC[C@@H]1CN(Cc2cc(F)c3nc(C(=O)N(C)C4CCOCC4)ccc3c2)C[C@H]1Oc1ccc2c(c1)CN([C@H]1CCC(=O)NC1=O)C2=O [Example 117, 6-{[(3S,4S)-3-({2-[(3S)-2,6-dioxopiperidin-3-yl]-1-oxo-2,3-dihydro-1H-isoindol-5-yl}oxy)-4-(methoxymethyl)pyrrolidin-1-yl]methyl}-8-fluoro-N-methyl-N-(oxan-4-yl)quinoline-2-carboxamide] | 2 nM | 27.5% | 8.40 | 7.51 | 9.1% | 40.1%

Further lines, with some results ahead:

Row | DC50 (WEE1) | 293T-LentiX WEE1-ePL Degradation 4 hr YMin (%) (WEE1) | pEC50 (MKN45 cells) | pEC50 (MDA-MB-231 cells) | Compound | MKN45 Cell Prolif. 120 hr YMin (%) (MKN45 cells) | MDA-MB 231 Cell Prolif. 120 hr YMin (%) (MDA-MB-231 cells)
9 | 1 nM | 40.7% | 7.06 | 6.63 | COC[C@@H]1CN(Cc2ccc3ccc(N4CCOCC4)nc3c2F)C[C@H]1Oc1ccc2c(c1)CN([C@H]1CCC(=O)NC1=O)C2=O [Example 105, (3S)-3-(5-{[(3S,4S)-1-{[8-fluoro-2-(morpholin-4-yl)quinolin-7-yl]methyl}-4-(methoxymethyl)pyrrolidin-3-yl]oxy}-1-oxo-2,3-dihydro-1H-isoindol-2-yl)piperidine-2,6-dione] | 83.4% | 91.5%
10 | 8 nM | 61.2% | 6.47 | 5.51 | COC[C@@H]1CN(Cc2ccc3ccc(N4CCOCC4)nc3c2)C[C@H]1Oc1ccc2c(c1)CN([C@H]1CCC(=O)NC1=O)C2=O [Example 108, (3S)-3-(5-{[(3S,4S)-4-(methoxymethyl)-1-{[2-(morpholin-4-yl)quinolin-7-yl]methyl}pyrrolidin-3-yl]oxy}-1-oxo-2,3-dihydro-1H-isoindol-2-yl)piperidine-2,6-dione] | 89.6% | 82.8%
11 |  | 27.3% |  | 7.92 | COC[C@@H]1CN(Cc2cc(F)c3nc(N4CCC(C(C)(C)O)CC4)ccc3c2)C[C@H]1Oc1ccc2c(c1)CN([C@H]1CCC(=O)NC1=O)C2=O [Example 110, (3S)-3-(5-{[(3S,4S)-1-({8-fluoro-2-[4-(2-hydroxypropan-2-yl)piperidin-1-yl]quinolin-6-yl}methyl)-4-(methoxymethyl)pyrrolidin-3-yl]oxy}-1-oxo-2,3-dihydro-1H-isoindol-2-yl)piperidine-2,6-dione] | 6.8% | 17.4%
12 | 9 nM | 29.5% | 8.40 | 7.01 | COC[C@@H]1CN(Cc2ccc3nc(N4CCN(C5CN(C)C5)CC4)ccc3c2)C[C@H]1Oc1ccc2c(c1)CN([C@H]1CCC(=O)NC1=O)C2=O [Example 113, (3S)-3-(5-{[(3S,4S)-4-(methoxymethyl)-1-({2-[4-(1-methylazetidin-3-yl)piperazin-1-yl]quinolin-6-yl}methyl)pyrrolidin-3-yl]oxy}-1-oxo-2,3-dihydro-1H-isoindol-2-yl)piperidine-2,6-dione] | 9.0% | 55.3%
13 |  | 29.7% | 9.00 | 7.85 | COC[C@@H]1CN(Cc2ccc3nc(C4CCN(C5COC5)CC4)ccc3c2)C[C@H]1Oc1ccc2c(c1)CN([C@H]1CCC(=O)NC1=O)C2=O [Example 114, (3S)-3-(5-{[(3S,4S)-4-(methoxymethyl)-1-({2-[1-(oxetan-3-yl)piperidin-4-yl]quinolin-6-yl}methyl)pyrrolidin-3-yl]oxy}-1-oxo-2,3-dihydro-1H-isoindol-2-yl)piperidine-2,6-dione] | 8.6% | 47.4%
14 |  | 23.6% |  | 7.17 | COC[C@@H]1CN(Cc2cc(F)c3nc(C45CCC(C(C)(C)O)(CC4)CC5)ccc3c2)C[C@H]1Oc1ccc2c(c1)CN([C@H]1CCC(=O)NC1=O)C2=O [Example 119, (S)-3-(5-(((3S,4S)-1-((8-fluoro-2-(4-(2-hydroxypropan-2-yl)bicyclo[2.2.2]octan-1-yl)quinolin-6-yl)methyl)-4-(methoxymethyl)pyrrolidin-3-yl)oxy)-1-oxoisoindolin-2-yl)piperidine-2,6-dione] | 6.8% | 1.7%

Source: patent US20250197374A1, “WEE1 DEGRADING COMPOUNDS AND USES THEREOF” (BRISTOL-MYERS SQUIBB COMPANY, priority 2023, published 2025)
